The AC50 is the concentration giving half of the maximal activity seen. What is called EC50 is the concentration giving half of the maximal effect.

Here are results for 13 molecules from US20260055083A1, “APOL1 INHIBITORS AND METHODS OF USE” (Maze Therapeutics, Inc., priority 2022, published 2026).

Structures are written as SMILES.

Assay [1] addresses T1, APOL1 G2 (Homo sapiens, UniProt O14791, DEL388-389).
T1 construct: expressed in transfected cells; host or cells: HEK293/T-REx APOL1 G2 clone #2, doxycycline-inducible
T1 sequence (O14791 with tags, fused parts or gaps DEL388-389): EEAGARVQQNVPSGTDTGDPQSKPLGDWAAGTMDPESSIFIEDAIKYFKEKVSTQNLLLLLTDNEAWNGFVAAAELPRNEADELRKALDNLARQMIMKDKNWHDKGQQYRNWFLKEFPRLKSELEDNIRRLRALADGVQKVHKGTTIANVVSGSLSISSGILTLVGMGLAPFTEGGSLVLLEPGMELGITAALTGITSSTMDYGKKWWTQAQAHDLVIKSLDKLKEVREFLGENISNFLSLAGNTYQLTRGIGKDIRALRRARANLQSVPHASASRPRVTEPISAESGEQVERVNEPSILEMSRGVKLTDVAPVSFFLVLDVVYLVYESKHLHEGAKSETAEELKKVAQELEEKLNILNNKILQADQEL
As to the kind of experiment: APOL1 G2 FLIPR calcium influx assay (HEK T-REx/GCaMP6f/APOL1 G2 K6.3 cells). It counts as cell-based. The conditions noted are these: HEK293 clone expressing GCaMP6f, doxycycline-induced APOL1 G2; prevention of calcium influx; geometric mean of at least 2 assay runs. As for the experimental part: A HEK293 clonal cell line was generated to stably express GCaMP6f, a genetically encoded calcium indicator, and inducibly express APOL1 G2 (HEK T-REx/GCaMP6f/APOL1 G2 K6.3). Cells were maintained in the following standard complete medium: DMEM with 4.5 g/L glucose and sodium pyruvate (BioWhittaker, Lonza, BE12-614F), supplemented with 10% FBS Performance Plus (Gibco, 16000044), 1% penicillin-streptomycin (BioWhittaker, DE17-602E), 2 mM ultraglutamine-1 (BioWhittaker cat. BE 17-605/U1), 50 μg/mL Zeocin (InvivoGen, ant-zn), 2.5 μg/mL Blasticidin (InvivoGen, ant-bl-5), and 25 μg/mL Hygromycin (InvivoGen, ant-hg). Standard propagation conditions consisted of plating 9×10^6, 4×10^6, 2×10^6 cells in a T225 flasks to be processed after 2, 3, or 4 days, respectively.
A source plate was generated containing 20 serially diluted compounds in DMSO (duplicate 8-point dose response). Next, 0.8 μL of compounds were transferred from the source plate to a destination plate prefilled with 79.2 μL of Ca^2+ free Tyrode's buffer (130 mM NaCl, 5 mM KCl, 1 mM MgCl2, 5 mM NaHCO3, 20 mM HEPES at pH 7.4). The destination plate was placed on a plate shaker (5 seconds at 2000 rpm) to mix. […] All transfer and mixing steps were conducted with an CyBi®-Well dispenser.
Cells were split by gently washing with DPBS (Euroclone, ECB4004L), followed by a 5-minute incubation (humidified, 37° C. with 5% CO2) with trypsin-EDTA solution (Euroclone, ECB3052D). Detached cells were diluted with standard complete medium without selective agents, counted, and plated in a 384 MTP microplate (GR4332CPL, Twin Helix) (10,000 cells/well in 25 μl/well) using a MATRIX WellMate dispenser. Plates were placed into a humidified incubator (37° C. with 5% CO2) overnight. The following day, 20 μL of doxycycline (Sigma, D9891) at 20 ng/mL in standard complete medium was added to cells with a CyBi®Drop dispenser to induce APOL1 G2 expression. After a 6-hour incubation (humidified, 37° C. with 5% CO2), cells were washed 3 times with Ca^2+ free Tyrode's Buffer (130 mM NaCl, 5 mM KCl, 1 mM MgCl2, 5 mM NaHCO3, 20 mM HEPES at pH 7.4) using a BIOTEK Microplate washer, such that 10 μL of buffer remained in each well after the final wash. Assay plates were then stored at room temperature for 10 minutes. Next, 10 μL of diluted compounds were transferred to the assay plate from the 2× compound plate using a CyBi®-Well dispenser. Compound incubation was then carried out at room temperature for 10 minutes. The assay plate was transferred to the […] and 20 μL of 10 mM Ca^2+ (final concentration=5 mM) Tyrode's buffer was injected.
Table B1 below summarizes the data from this experiment. Unless otherwise specified, AC50 and values are reported as the geometric mean of at least 2 assay runs on separate days. Each run represents the average of a technical replicate, where each compound was assayed twice in the same plate. A superscript t symbol indicates a value from the average of a technical replicate from a single assay run, where each compound was assayed twice in the same plate.
The AC50 values in Table B1 below reflect the compound's ability to prevent calcium influx by inhibiting APOL1. […] Compounds in Table B1 are referred to by the corresponding Compound Number in Table 1, which is also referred to in the synthetic examples. When one or more of the numbered compounds are identified by stereochemistry (for example, (R)- or (S)-), the specific stereoisomer for which data is provided in Table B1 may be identified by the elution order of such compound as described in the synthetic examples. To illustrate, Compound 2 is the first-eluting enantiomer of step 4 of Example 1 and Compound 3 is the second-eluting enantiomer of step 4 of Example 1. Further, by way of illustration, Compound 27 is the first-eluting enantiomeric mixture in step 4 of Example 7 and Compound 28 is the second-eluting enantiomeric mixture in step 4 of Example 7. […]

In assay [2] the target is T1, APOL1 G2. As to the kind of experiment: APOL1 G2 HEK293 rescue of cell death caused by overexpression of APOL1 (CellTiter-Glo). It counts as cell-based. The following applies: HEK293/T-REx APOL1 G2 clone #2, doxycycline induction, 17 hours, CellTiter-Glo luminescence; reversal of cell death; geometric mean of at least 2 assay runs. As for the experimental part: A HEK293 clonal cell line overexpressing APOL1 G2 (HEK293/T-REx APOL1 G2/clone #2) was maintained in 1×DMEM-GlutaMax (Gibco, 10569-010) media with 10% tetracycline-free FBS (Takara Bio USA, 631101), 5 μg/mL Blasticidin (Gibco, A1113903), and 100 μg/mL Zeocin (Invitrogen, R25001) in T75 flasks. In preparation for the assay, this media was aspirated and 2 mL of prewarmed TrypLE Express (Gibco, 12605-010) was added to a flask to detach cells. The flask was then incubated (humidified, 37° C. with 5% CO2) for 3-5 minutes. Afterwards, 8 mL of prewarmed cell assay media (1×DMEM-GlutaMax media with 10% tetracycline-free FBS) was added to the trypsinized cells. The suspension was gently mixed, and cells were counted using a Countess Cell Counting Chamber (Invitrogen). The suspension was diluted using cell assay media to generate a working stock solution (166,667 cells/mL). Using a MultiDrop Combi (Thermo Electron Corp), 30 μL (final cell density=5,000 cells/well) of the working stock solution was dispensed into each well of white 384-well assay ready plates (Nunc™, 164610) containing 6 ng/mL doxycycline, to induce APOL1 expression, and compound. All compounds were plated in a duplicate 8-point dilution series that consisted of 3-fold stepwise dilutions (0.5% DMSO final). Assay plates were incubated (humidified, 37° C. with 5% CO2) for 17 hours. After the incubation, the plates were equilibrated at room temperature for 1 hour. Next, 15 μl of CellTiter-Glo® reagent (Promega, G7570) was added to each well using a MultiDrop Combi. Plates were placed on an orbital shaker (500 rpm) for 5 minutes to induce cell lysis and then incubated at room temperature for 10 minutes. Luminescence was measured on an Envision plate reader. Collaborative Drug Discovery software was utilized for graphing data. Plots were generated using a four parameter logistic curve fit.
Table B2 below provides the results from this experiment. Unless otherwise specified, EC50 values are reported as the geometric mean of at least 2 assay runs on separate days. Each run represents the average of a technical replicate, where each compound was assayed twice in the same plate. A superscript t symbol indicates a value from the average of a technical replicate from a single assay run, where each compound was assayed twice in the same plate. Compounds in Table B2 are referred to by the corresponding Compound Number in Table 1, which is also referred to in the synthetic examples. When one or more of the numbered compounds are identified by stereochemistry (for example, (R)- or (S)-), the specific stereoisomer for which data is provided in Table B2 may be identified by the elution order of such compound as described in the synthetic examples. To illustrate, Compound 2 is the first-eluting enantiomer of step 4 of Example 1 and Compound 3 is the second-eluting enantiomer of step 4 of Example 1. Further, by way of illustration, Compound 27 is the first-eluting enantiomeric mixture in step 4 of Example 7 and Compound 28 is the second-eluting enantiomeric mixture in step 4 of Example 7. Then, Compound 27 is separated into Compound 29 (the first-eluting enantiomer) and Compound 30 (the second-eluting enantiomer) in Example 8, and Compound 28 is separated into Compound 31 (the first-eluting enantiomer) and Compound 32 (the second-eluting enantiomer) in Example 8. Absolute stereochemistry of such compounds may be identified by methods known in the art.
Rescue EC50 values reported in Table B2 below represent the half-maximal effective concentration for reversal of cell death caused by overexpression of APOL1.
A general note: In ATP-based viability assays light output follows the ATP content of the culture.

As for `C[C@@H]1C[C@H](COc2ccc(S(C)(=O)=O)cc2)CN1C1Cc2ccc(Cl)cc2C1` (single isomer, unassigned) [Compound 2], the concentration at half-maximal activity (AC50) on APOL1 G2 [1] amounted to 1030 nM. The EC50 at APOL1 G2 [2] was found to be 693 nM.

For `C[C@@H]1C[C@H](COc2ccc(S(C)(=O)=O)cc2)CN1C1Cc2ccc(Cl)cc2C1` (single isomer, unassigned) [Compound 3, (2R,4S)-1-[(2R or 2S)-5-chloro-2,3-dihydro-1H-inden-2-yl]-4-[(4-methanesulfonylphenoxy)methyl]-2-methylpyrrolidine], the AC50 on APOL1 G2 [1] came to 721 nM. In addition, the EC50 on APOL1 G2 [2] was determined as 398 nM.

Consider `C[C@@H]1C[C@H](COc2ccc(S(C)(=O)=O)cc2)CN1C1Cc2ccc(Cl)cc2C1` (single isomer, unassigned) [Compound 4, (2R,4S)-1-[(2S or 2R)-5-chloro-2,3-dihydro-1H-inden-2-yl]-4-[(4-methanesulfonylphenoxy)methyl]-2-methylpyrrolidine], for which the AC50 on APOL1 G2 [1] was 1140 nM. Also, on APOL1 G2 [2], the EC50 is 2350 nM.

As to `C[C@@H]1C[C@H](COc2ccc(S(C)(=O)=O)cc2)CN1C1CCc2ccc(Cl)cc2C1` (single isomer, unassigned) [Compound 5, (2R,4S)-1-[(2S or 2R)-7-chloro-1,2,3,4-tetrahydronaphthalen-2-yl]-4-[(4-methanesulfonylphenoxy)methyl]-2-methylpyrrolidine], the AC50 on APOL1 G2 [1] was determined as 488 nM. Further, the EC50 on APOL1 G2 [2] was found to be 47.6 nM.

On to `C[C@@H]1C[C@H](COc2ccc(S(=O)(=O)C3CNC3)cc2)CN1C1CCc2ccc(C#N)cc2C1` (single isomer, unassigned) [Compound 27], for which the EC50 on APOL1 G2 [2] was 145 nM.

Turning to `C[C@@H]1C[C@H](COc2ccc(S(=O)(=O)C3CNC3)cc2)CN1C1CCc2ccc(C#N)cc2C1` (single isomer, unassigned) [Compound 28], at APOL1 G2 [2], the EC50 stood at 401 nM.

With `C[C@@H]1C[C@H](COc2ccc(S(=O)(=O)C3CNC3)cc2)CN1C1CCc2ccc(C#N)cc2C1` (single isomer, unassigned) [Compound 29], on APOL1 G2 [2], the EC50 turned out to be 58.4 nM.

As to `CN=S(C)(=O)c1ccc(OC[C@H]2C[C@@H](C)N(C3CCc4ccc(C#N)cc4C3)C2)cc1` (single isomer, unassigned) [Compound 37, (7R or 7S)-7-[(2R,4S)-2-methyl-4-({4-[methyl(methylimino)oxo-λ^6-sulfanyl]phenoxy}methyl)pyrrolidin-1-yl]-5,6,7,8-tetrahydronaphthalene-2-carbonitrile], the EC50 at APOL1 G2 [2] was determined as 769 nM.

On to `C[C@@H]1CN(CC(O)c2cccc(Cl)c2)C[C@H]1COc1ccc(S(C)(=O)=O)cc1` (single isomer, unassigned) [Compound 91, (1R) or (1S)-1-(3-chlorophenyl)-2-[trans-3-[(4-methanesulfonylphenoxy)methyl]-4-methylpyrrolidin-1-yl]ethan-1-ol], for which the EC50 on APOL1 G2 [2] stood at 1610 nM.

For the molecule `COC(=O)CCCS(=O)(=O)c1ccc(OC[C@@H]2CN(CCc3cccc(Cl)c3)C[C@H]2C)cc1` [Compound 79, methyl 4-(4-{[(3S,4S)-1-[2-(3-chlorophenyl)ethyl]-4-methylpyrrolidin-3-yl]methoxy}benzenesulfonyl)butanoate], at APOL1 G2 [2], the EC50 was 334 nM.

Regarding `C[C@@H]1CN(CCc2cccc(C#N)c2)C[C@H]1COc1cc(F)c(S(C)(=O)=O)c(F)c1` [Compound 81, 3-{2-[(3S,4S)-3-[(3,5-difluoro-4-methanesulfonylphenoxy)methyl]-4-methylpyrrolidin-1-yl]ethyl}benzonitrile], the EC50 on APOL1 G2 [2] turned out to be 144 nM.

Take `Cc1cc(OC[C@@H]2CN(CCc3cccc(C#N)c3)C[C@H]2C)cnc1S(C)(=O)=O` [Compound 87, 3-{2-[(3S,4S)-3-{[(6-methanesulfonyl-5-methylpyridin-3-yl)oxy]methyl}-4-methylpyrrolidin-1-yl]ethyl}benzonitrile]: the EC50 at APOL1 G2 [2] amounted to 185 nM.

As to `C[C@H]1CN(CCc2cccc(Cl)c2)C[C@@H]1COc1ccc(S(C)(=O)=O)cc1` [Compound 92, (3R,4R)-1-[2-(3-chlorophenyl)ethyl]-3-[(4-methanesulfonylphenoxy)methyl]-4-methylpyrrolidine], on APOL1 G2 [2], the EC50 stood at 2070 nM.
